# Assay results from ChEMBL document CHEMBL4507310, “Data for DCP probe A-1211212” (2021).
# Legend:
# [1] = target: Cyclin-dependent kinase 14 (Homo sapiens) (UniProt O94921); conditions: Compound concentration 1000.0 nM
# [2] = target: Casein kinase I isoform alpha (Homo sapiens) (UniProt P48729); conditions: Compound concentration 1000.0 nM
# [3] = target: Peripheral plasma membrane protein CASK (Homo sapiens) (UniProt O14936); conditions: Compound concentration 1000.0 nM
# [4] = target: Mitogen-activated protein kinase 9 (Homo sapiens) (UniProt P45984); conditions: Compound concentration 1000.0 nM
# [5] = target: Non-receptor tyrosine-protein kinase TYK2 (Homo sapiens) (UniProt P29597); conditions: Compound concentration 1000.0 nM
# [6] = target: Tyrosine-protein kinase Fes/Fps (Homo sapiens) (UniProt P07332); conditions: Compound concentration 1000.0 nM
# [7] = target: Macrophage colony-stimulating factor 1 receptor (Homo sapiens) (UniProt P07333); conditions: Compound concentration 1000.0 nM
# [8] = target: SRSF protein kinase 3 (Homo sapiens) (UniProt Q9UPE1); conditions: Compound concentration 1000.0 nM
# [9] = target: Vascular endothelial growth factor receptor 2 (Homo sapiens) (UniProt P35968); conditions: Compound concentration 1000.0 nM
# [10] = target: Serine/threonine-protein kinase TNNI3K (Homo sapiens) (UniProt Q59H18); conditions: Compound concentration 1000.0 nM
# [11] = target: Aurora kinase C (Homo sapiens) (UniProt Q9UQB9); conditions: Compound concentration 1000.0 nM
# [12] = target: Sigma intracellular receptor 2 (Homo sapiens, UniProt Q5BJF2); assay: GPCRScan assay: inhibition of Sigma 2; parameters: radioligand conc. used [nm] 5.0, parental cells HEKT
# [13] = target: T1, 5-hydroxytryptamine receptor 2C (Homo sapiens) (UniProt P28335); assay: 5-HT2C (h) Eurofins-Cerep binding assay; parameters: ligand concentration 1 nM; conditions: filed as antagonist, Compound concentration 10.0 uM
# T1 sequence (whole entry): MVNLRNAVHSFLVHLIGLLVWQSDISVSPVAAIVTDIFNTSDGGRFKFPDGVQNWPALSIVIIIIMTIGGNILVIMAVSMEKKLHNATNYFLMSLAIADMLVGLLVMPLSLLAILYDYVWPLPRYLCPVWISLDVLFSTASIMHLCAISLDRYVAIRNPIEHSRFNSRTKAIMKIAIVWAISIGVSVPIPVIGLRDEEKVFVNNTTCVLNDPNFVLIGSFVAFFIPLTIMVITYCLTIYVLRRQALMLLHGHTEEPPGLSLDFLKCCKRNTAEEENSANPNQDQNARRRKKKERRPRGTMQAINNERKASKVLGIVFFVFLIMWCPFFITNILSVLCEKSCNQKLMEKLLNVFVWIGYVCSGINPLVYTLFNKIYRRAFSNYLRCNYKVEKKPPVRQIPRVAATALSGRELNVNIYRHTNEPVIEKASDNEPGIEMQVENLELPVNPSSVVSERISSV
# [14] = target: Muscarinic acetylcholine receptor M3 (Homo sapiens) (UniProt P20309); assay: M3 (h) Eurofins-Cerep binding assay; parameters: ligand concentration 0.2 nM; conditions: filed as antagonist, Compound concentration 10.0 uM
# [15] = target: Ribosomal protein S6 kinase alpha-1 (Homo sapiens) (UniProt Q15418); conditions: Compound concentration 1000.0 nM
# [16] = target: Serine/threonine-protein kinase DCLK3 (Homo sapiens) (UniProt Q9C098); conditions: Compound concentration 1000.0 nM
# Chain of Serine/threonine-protein kinase DCLK3 (Homo sapiens) (Q9C098 whole entry): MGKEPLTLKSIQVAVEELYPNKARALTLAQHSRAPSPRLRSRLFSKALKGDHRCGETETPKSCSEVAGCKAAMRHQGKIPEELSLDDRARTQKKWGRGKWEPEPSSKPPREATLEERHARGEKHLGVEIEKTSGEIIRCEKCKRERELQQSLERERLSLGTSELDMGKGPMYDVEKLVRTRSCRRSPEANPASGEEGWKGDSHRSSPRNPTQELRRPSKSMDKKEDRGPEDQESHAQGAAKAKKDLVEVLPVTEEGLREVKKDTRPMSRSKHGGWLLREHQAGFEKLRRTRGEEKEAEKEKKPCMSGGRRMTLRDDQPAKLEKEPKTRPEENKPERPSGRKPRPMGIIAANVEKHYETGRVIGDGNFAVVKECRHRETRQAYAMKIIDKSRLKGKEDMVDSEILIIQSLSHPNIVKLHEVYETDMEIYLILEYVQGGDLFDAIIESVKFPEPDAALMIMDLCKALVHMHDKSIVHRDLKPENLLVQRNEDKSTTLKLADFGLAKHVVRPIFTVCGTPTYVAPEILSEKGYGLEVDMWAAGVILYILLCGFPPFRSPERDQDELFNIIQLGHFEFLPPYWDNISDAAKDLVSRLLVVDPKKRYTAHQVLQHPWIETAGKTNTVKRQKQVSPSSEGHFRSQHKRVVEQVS
# [17] = target: AP2-associated protein kinase 1 (Homo sapiens) (UniProt Q2M2I8); conditions: Compound concentration 1000.0 nM
# [18] = target: Ephrin type-A receptor 4 (Homo sapiens) (UniProt P54764); conditions: Compound concentration 1000.0 nM
# Chain of Ephrin type-A receptor 4 (Homo sapiens) (P54764 whole entry): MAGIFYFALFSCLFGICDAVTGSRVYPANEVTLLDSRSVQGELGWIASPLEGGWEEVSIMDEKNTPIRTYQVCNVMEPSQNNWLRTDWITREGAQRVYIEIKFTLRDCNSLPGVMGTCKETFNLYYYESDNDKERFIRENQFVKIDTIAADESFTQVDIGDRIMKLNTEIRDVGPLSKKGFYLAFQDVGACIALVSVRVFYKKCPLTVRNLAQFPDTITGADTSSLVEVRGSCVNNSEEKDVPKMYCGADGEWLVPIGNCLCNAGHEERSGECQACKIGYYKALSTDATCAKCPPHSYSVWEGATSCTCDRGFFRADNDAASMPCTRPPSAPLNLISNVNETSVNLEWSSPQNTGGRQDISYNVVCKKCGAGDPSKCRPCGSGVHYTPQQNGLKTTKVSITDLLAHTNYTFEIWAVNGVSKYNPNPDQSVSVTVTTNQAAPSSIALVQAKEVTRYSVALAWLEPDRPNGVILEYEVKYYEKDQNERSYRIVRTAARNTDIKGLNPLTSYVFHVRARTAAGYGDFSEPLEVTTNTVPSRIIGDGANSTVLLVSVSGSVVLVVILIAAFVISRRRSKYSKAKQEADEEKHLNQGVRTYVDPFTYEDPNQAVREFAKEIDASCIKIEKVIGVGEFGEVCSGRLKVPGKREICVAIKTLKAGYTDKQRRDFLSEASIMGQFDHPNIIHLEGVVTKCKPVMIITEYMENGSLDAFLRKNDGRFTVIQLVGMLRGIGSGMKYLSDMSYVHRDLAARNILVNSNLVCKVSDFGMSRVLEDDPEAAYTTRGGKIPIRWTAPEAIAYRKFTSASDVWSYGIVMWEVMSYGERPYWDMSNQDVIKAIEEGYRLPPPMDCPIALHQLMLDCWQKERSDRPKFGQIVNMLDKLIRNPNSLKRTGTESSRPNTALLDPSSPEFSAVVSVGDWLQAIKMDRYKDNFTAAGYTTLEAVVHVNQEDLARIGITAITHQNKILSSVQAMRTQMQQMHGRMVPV
# [19] = target: Ribosomal protein S6 kinase alpha-4 (Homo sapiens) (UniProt O75676); conditions: Compound concentration 1000.0 nM
# Chain of Ribosomal protein S6 kinase alpha-4 (Homo sapiens) (O75676 whole entry, looked up, canonical isoform): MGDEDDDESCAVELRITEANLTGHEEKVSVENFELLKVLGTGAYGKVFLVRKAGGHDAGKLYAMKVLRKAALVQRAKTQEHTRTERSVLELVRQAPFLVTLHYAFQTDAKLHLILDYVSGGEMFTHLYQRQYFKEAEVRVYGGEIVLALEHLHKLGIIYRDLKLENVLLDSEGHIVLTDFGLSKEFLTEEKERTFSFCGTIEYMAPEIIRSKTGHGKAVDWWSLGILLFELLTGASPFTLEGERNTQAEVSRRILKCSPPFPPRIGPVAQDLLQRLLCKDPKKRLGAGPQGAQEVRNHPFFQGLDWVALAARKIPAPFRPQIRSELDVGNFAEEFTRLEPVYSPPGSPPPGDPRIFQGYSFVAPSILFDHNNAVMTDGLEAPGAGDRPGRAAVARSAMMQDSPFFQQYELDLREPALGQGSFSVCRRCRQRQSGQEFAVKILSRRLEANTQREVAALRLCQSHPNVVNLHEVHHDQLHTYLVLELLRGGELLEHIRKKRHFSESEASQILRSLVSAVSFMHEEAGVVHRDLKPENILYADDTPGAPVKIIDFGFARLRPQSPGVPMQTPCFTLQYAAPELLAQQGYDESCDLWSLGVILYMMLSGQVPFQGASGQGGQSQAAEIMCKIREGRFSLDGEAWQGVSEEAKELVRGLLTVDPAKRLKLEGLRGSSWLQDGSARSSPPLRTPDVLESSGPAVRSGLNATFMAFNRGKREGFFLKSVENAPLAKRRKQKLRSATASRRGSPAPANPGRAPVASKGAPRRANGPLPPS
# [20] = target: Phosphatidylinositol 4,5-bisphosphate 3-kinase catalytic subunit beta isoform (Homo sapiens) (UniProt P42338); conditions: Compound concentration 1000.0 nM
# [21] = target: Serine/threonine-protein kinase PLK2 (Homo sapiens) (UniProt Q9NYY3); conditions: Compound concentration 1000.0 nM
# [22] = tested on: Tyrosine-protein kinase ABL1 (Homo sapiens), P00519 [T315I]; conditions: Compound concentration 1000.0 nM
# [23] = target: Tumor necrosis factor (Homo sapiens) (UniProt P01375); assay: TNF-alpha (h) Eurofins-Cerep binding assay; parameters: ligand concentration 0.1 nM; conditions: filed as agonist, Compound concentration 10.0 uM
# [24] = target: Serine/threonine-protein kinase D2 (Homo sapiens) (UniProt Q9BZL6); conditions: Compound concentration 1000.0 nM
# [25] = target: Rho-associated protein kinase 1 (Homo sapiens) (UniProt Q13464); conditions: Compound concentration 1000.0 nM
# [26] = target: Adenosine receptor A1 (Homo sapiens) (UniProt P30542); assay: A1 (h) Eurofins-Cerep binding assay; parameters: ligand concentration 1 nM; conditions: filed as antagonist, Compound concentration 10.0 uM
# [27] = target: Serine/threonine-protein kinase mTOR (Homo sapiens) (UniProt P42345); conditions: Compound concentration 1000.0 nM
# [28] = tested on: Mast/stem cell growth factor receptor Kit (Homo sapiens), P10721 [A829P]; conditions: Compound concentration 1000.0 nM
# [29] = target: RAC-gamma serine/threonine-protein kinase (Homo sapiens) (UniProt Q9Y243); conditions: Compound concentration 1000.0 nM
# [30] = target: Uncharacterized serine/threonine-protein kinase SBK3 (Homo sapiens) (UniProt P0C264); conditions: Compound concentration 1000.0 nM
# [31] = target: Mitogen-activated protein kinase 1 (Homo sapiens) (UniProt P28482); conditions: Compound concentration 1000.0 nM
# [32] = tested on: Tyrosine-protein kinase ABL1 (Homo sapiens), P00519 [F317L]; conditions: Compound concentration 1000.0 nM
# [33] = target: Beta-adrenergic receptor kinase 1 (Homo sapiens) (UniProt P25098); conditions: Compound concentration 1000.0 nM
# [34] = target: Mitotic checkpoint serine/threonine-protein kinase BUB1 (Homo sapiens) (UniProt O43683); conditions: Compound concentration 1000.0 nM
# Chain of Mitotic checkpoint serine/threonine-protein kinase BUB1 (Homo sapiens) (O43683 whole entry, looked up): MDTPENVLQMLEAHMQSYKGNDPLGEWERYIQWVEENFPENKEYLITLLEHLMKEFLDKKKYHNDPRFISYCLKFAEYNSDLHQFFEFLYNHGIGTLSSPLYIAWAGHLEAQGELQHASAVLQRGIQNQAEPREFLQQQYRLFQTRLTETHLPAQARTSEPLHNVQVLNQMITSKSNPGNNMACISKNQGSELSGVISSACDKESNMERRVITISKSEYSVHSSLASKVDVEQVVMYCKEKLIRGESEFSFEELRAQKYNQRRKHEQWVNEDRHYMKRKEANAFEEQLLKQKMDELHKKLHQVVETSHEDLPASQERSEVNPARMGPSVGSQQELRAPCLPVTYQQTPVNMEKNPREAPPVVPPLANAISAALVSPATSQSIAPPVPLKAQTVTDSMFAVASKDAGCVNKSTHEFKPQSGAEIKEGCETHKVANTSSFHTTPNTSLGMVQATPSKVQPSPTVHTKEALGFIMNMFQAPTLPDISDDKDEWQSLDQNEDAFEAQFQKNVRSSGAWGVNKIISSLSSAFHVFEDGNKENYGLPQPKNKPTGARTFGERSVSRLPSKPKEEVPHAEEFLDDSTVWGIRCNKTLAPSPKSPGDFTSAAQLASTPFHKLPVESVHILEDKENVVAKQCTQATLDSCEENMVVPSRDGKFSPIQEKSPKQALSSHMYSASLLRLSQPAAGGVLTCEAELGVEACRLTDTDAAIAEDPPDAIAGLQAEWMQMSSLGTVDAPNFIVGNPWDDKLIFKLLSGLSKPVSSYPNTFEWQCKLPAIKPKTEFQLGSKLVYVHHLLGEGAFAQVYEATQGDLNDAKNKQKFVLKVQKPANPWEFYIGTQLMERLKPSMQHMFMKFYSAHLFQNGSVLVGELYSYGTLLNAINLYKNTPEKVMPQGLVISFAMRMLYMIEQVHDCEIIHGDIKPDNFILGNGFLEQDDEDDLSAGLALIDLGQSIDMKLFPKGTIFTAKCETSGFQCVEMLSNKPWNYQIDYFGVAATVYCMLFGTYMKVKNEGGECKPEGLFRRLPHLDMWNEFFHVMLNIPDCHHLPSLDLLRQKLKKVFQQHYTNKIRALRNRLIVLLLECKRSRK
# [35] = target: Ephrin type-B receptor 1 (Homo sapiens) (UniProt P54762); conditions: Compound concentration 1000.0 nM
# Chain of Ephrin type-B receptor 1 (Homo sapiens) (P54762 whole entry): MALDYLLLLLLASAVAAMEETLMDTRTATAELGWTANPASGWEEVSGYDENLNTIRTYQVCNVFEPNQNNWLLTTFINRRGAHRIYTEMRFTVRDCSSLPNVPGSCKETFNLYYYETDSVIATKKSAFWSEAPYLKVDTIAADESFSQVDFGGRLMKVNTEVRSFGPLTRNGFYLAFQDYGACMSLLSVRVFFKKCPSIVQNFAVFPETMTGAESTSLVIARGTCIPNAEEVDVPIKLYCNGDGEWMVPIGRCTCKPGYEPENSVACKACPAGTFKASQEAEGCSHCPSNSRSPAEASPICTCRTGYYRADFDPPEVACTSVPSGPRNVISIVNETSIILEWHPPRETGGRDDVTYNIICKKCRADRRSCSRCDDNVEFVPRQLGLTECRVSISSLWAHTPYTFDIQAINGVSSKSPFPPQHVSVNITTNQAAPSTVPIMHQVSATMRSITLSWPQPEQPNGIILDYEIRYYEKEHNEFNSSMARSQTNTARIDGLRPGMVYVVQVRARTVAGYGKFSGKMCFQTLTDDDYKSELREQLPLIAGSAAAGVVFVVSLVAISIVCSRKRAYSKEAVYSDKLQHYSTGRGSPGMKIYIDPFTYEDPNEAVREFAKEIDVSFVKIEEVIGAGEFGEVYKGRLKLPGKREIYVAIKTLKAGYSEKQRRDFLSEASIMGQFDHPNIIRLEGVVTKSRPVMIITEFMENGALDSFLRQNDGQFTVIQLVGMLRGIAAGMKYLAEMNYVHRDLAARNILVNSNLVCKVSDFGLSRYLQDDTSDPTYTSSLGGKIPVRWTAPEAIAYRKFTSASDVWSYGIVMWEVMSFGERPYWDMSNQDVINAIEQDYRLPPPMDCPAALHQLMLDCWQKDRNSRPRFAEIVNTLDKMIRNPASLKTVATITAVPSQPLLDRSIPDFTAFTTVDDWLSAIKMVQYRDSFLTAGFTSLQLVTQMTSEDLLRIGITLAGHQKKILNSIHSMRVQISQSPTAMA
# [36] = target: Alpha-2C adrenergic receptor (Homo sapiens) (UniProt P18825); conditions: Compound concentration 10.0 uM
# Chain of Alpha-2C adrenergic receptor (Homo sapiens) (P18825 whole entry): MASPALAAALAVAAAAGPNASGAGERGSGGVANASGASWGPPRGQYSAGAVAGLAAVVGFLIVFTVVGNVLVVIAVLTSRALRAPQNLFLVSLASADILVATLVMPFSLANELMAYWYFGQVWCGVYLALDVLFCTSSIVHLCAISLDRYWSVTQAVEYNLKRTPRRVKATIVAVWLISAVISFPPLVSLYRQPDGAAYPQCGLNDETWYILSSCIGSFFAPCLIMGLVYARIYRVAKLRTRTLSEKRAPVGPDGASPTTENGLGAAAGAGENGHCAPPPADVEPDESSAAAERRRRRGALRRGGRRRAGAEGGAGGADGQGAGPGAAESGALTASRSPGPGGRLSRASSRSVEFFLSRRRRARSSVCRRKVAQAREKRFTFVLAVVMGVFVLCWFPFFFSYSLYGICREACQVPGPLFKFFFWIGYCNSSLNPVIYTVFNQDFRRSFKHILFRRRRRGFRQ
# [37] = target: Serine/threonine-protein kinase 24 (Homo sapiens) (UniProt Q9Y6E0); conditions: Compound concentration 1000.0 nM
# [38] = target: Calcium/calmodulin-dependent protein kinase type II subunit alpha (Homo sapiens) (UniProt Q9UQM7); conditions: Compound concentration 1000.0 nM
# [39] = target: Death-associated protein kinase 3 (Homo sapiens) (UniProt O43293); conditions: Compound concentration 1000.0 nM
SMILES,residual activity [1] [%],residual activity [2] [%],residual activity [3] [%],residual activity [4] [%],residual activity [5] [%],residual activity [6] [%],residual activity [7] [%],residual activity [8] [%],residual activity [9] [%],residual activity [10] [%],residual activity [11] [%],Ki [12] [µM],% Inhibition of Control Specific Binding (Mean n=2) [13] [%],% Inhibition of Control Specific Binding (Mean n=2) [14] [%],residual activity [15] [%],residual activity [16] [%],residual activity [17] [%],residual activity [18] [%],residual activity [19] [%],residual activity [20] [%],further results
O=C(NS(=O)(=O)c1ccc(NCC2CCOCC2)c([N+](=O)[O-])c1)c1ccc(N2CCN(Cc3ccc(C(F)(F)F)cc3-c3ccc(Cl)cc3)CC2)cc1Oc1cnc2[nH]ccc2c1 [A-1210227],100,96,80,85,73,100,100,100,100,95,97,8.37,3.7,8.9,95,93,98,100,89,100,residual activity [21]: 100%; residual activity [22]: 82%; % Inhibition of Control Specific Binding (Mean n=2) [23]: -42%; residual activity [24]: 100%; residual activity [25]: 100%; % Inhibition of Control Specific Binding (Mean n=2) [26]: 13.6%; residual activity [27]: 100%; residual activity [28]: 99%; residual activity [29]: 89%; residual activity [30]: 100%; residual activity [31]: 87%; residual activity [32]: 91%; residual activity [33]: 91%; residual activity [34]: 100%; residual activity [35]: 100%; inhibition [36]: 12.7%; residual activity [37]: 100%; residual activity [38]: 87%; residual activity [39]: 91%
CO[C@H]1CC[C@H](CNc2ccc(S(=O)(=O)NC(=O)c3ccc(N4CCN(CC5=C(c6ccc(Cl)cc6)CC(C)(C)CC5)CC4)cc3Oc3cnc4[nH]ccc4c3)cc2[N+](=O)[O-])CC1 [A-1211212],100,85,100,82,67,100,86,100,100,85,87,1.49,-4.1,10.3,69,84,78,88,90,100,residual activity [21]: 100%; residual activity [22]: 100%; % Inhibition of Control Specific Binding (Mean n=2) [23]: -20.3%; residual activity [24]: 100%; residual activity [25]: 70%; % Inhibition of Control Specific Binding (Mean n=2) [26]: 9.1%; residual activity [27]: 50%; residual activity [28]: 100%; residual activity [29]: 100%; residual activity [30]: 83%; residual activity [31]: 84%; residual activity [32]: 100%; residual activity [33]: 85%; residual activity [34]: 73%; residual activity [35]: 84%; inhibition [36]: 15.6%; residual activity [37]: 75%; residual activity [38]: 68%; residual activity [39]: 68%
